Measured values as given in patent publication US12492173B2, “Herbicidal substituted N-tetrazolyl aryl carboxamides” (Bayer Aktiengesellschaft, priority 2019, dated 2025).

Key:
Format in all cases: in vivo
Matricaria inodora = assay: Pre-emergence herbicidal action, MATIN; conditions: dosage 320 g/ha; for herbicidal activity MATIN: scored visually after 3 weeks vs untreated controls (100% = plants have died)
How it was run: (§1)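 Percent damage, assessed visually after 3 weeks and referenced to untreated controls, reflects a pre-emergence treatment. Spray liquid equated to 600 to 800 l/ha with 0.2% wetting agent, applied to the covering soil over seeds in sandy loam.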

Amaranthus retroflexus = assay: Post-emergence herbicidal action, AMARE; set-up: key: % herbicidal action vs untreated; 100 = plants died, 0 = like control; conditions: for Herbicidal action against AMARE: comparative experiment
How it was run: (§2)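 Foliar application at the one-leaf stage of greenhouse-grown plants in sandy loam; compound applied as WP or EC in 600–800 l/ha water containing 0.2% wetting agent. Scores are visual percentages (0% like control, 100% plants died) taken after roughly 3 weeks.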

Setaria viridis = assay: Pre-emergence herbicidal action, SETVI; set-up: key to Herbicidal action against SETVI: % activity: 100 = plants have died, 0 = like control plants; conditions: for herbicidal activity SETVI: scored visually after 3 weeks vs untreated controls (100% = plants have died); for Herbicidal action against SETVI: comparative experiment, 80 g of a.i./ha
How it was run: as §1

Echinochloa crus-galli = assay: Pre-emergence herbicidal action, ECHCG; set-up: key to Herbicidal action against ECHCG: % activity: 100 = plants have died, 0 = like control plants; conditions: for herbicidal activity ECHCG: scored visually after 3 weeks vs untreated controls (100% = plants have died); for Herbicidal action against ECHCG: comparative experiment
How it was run: as §1

Pharbitis purpurea = assay: Pre-emergence herbicidal action, PHBPU; conditions: for herbicidal activity PHBPU: scored visually after 3 weeks vs untreated controls (100% = plants have died)
How it was run: as §1

Avena fatua = assay: Post-emergence herbicidal action, AVEFA; set-up: key: % herbicidal action vs untreated; 100 = plants died, 0 = like control
How it was run: as §2

SMILES: CCn1nnnc1NC(=O)c1ccc(C(F)(F)F)c(C[S+](C)[O-])c1Cl (stereo not shown) [Example 2-297]
- herbicidal activity MATIN (Matricaria inodora): 100%
- herbicidal action AMARE (Amaranthus retroflexus; post-emergence, dosage 80 g/ha): 100%
- herbicidal activity SETVI (Setaria viridis; dosage 320 g/ha): 100%
- herbicidal activity ECHCG (Echinochloa crus-galli; dosage 320 g/ha): 100%
- herbicidal activity PHBPU (Pharbitis purpurea; dosage 320 g/ha): 90%
- herbicidal action AVEFA (Avena fatua; post-emergence, dosage 80 g/ha): 100%

SMILES: CCSCc1c(C(F)(F)F)ccc(C(=O)Nc2nnnn2C)c1Br [Example 1-383]
- herbicidal activity MATIN (Matricaria inodora): 100%
- herbicidal action AMARE (Amaranthus retroflexus; post-emergence, dosage 80 g/ha): 90%
- Herbicidal action against SETVI (Setaria viridis): 100
- herbicidal activity SETVI (Setaria viridis; dosage 320 g/ha): 100%
- Herbicidal action against ECHCG (Echinochloa crus-galli; 80 g of a.i./ha): 100
- herbicidal activity ECHCG (Echinochloa crus-galli; dosage 320 g/ha): 100%
- herbicidal activity PHBPU (Pharbitis purpurea; dosage 320 g/ha): 80%
- Herbicidal action against AVEFA (Avena fatua; comparative experiment, post-emergence, 20 g of a.i./ha): 90
- herbicidal action AVEFA (Avena fatua; post-emergence, dosage 80 g/ha): 90%

SMILES: CCSCc1c(C(F)(F)F)ccc(C(=O)Nc2nnnn2CC)c1Cl [Example 2-299]
- herbicidal activity MATIN (Matricaria inodora): 100%
- herbicidal action AMARE (Amaranthus retroflexus; post-emergence, dosage 80 g/ha): 90%
- herbicidal activity SETVI (Setaria viridis; dosage 320 g/ha): 100%
- herbicidal activity ECHCG (Echinochloa crus-galli; dosage 320 g/ha): 100%
- herbicidal activity PHBPU (Pharbitis purpurea; dosage 320 g/ha): 90%
- herbicidal action AVEFA (Avena fatua; post-emergence, dosage 80 g/ha): 100%

SMILES: CCn1nnnc1NC(=O)c1ccc(C(F)(F)F)c(CS(C)(=O)=O)c1Cl [Example 2-298]
- herbicidal activity MATIN (Matricaria inodora): 100%
- herbicidal action AMARE (Amaranthus retroflexus; Dosage 80 g/ha): 90
- herbicidal activity SETVI (Setaria viridis; dosage 320 g/ha): 100%
- herbicidal activity ECHCG (Echinochloa crus-galli; dosage 320 g/ha): 100%
- herbicidal activity PHBPU (Pharbitis purpurea; dosage 320 g/ha): 80%
- herbicidal action AVEFA (Avena fatua; Dosage 80 g/ha): 100

SMILES: CC[S+]([O-])Cc1c(C(F)(F)F)ccc(C(=O)Nc2nnnn2C)c1Cl (racemic) [Example 1-300]
- herbicidal activity MATIN (Matricaria inodora): 100%
- herbicidal action AMARE (Amaranthus retroflexus; post-emergence, dosage 80 g/ha): 100%
- herbicidal activity SETVI (Setaria viridis; dosage 320 g/ha): 100%
- herbicidal activity ECHCG (Echinochloa crus-galli; dosage 320 g/ha): 100%
- herbicidal activity PHBPU (Pharbitis purpurea; dosage 320 g/ha): 100%
- herbicidal action AVEFA (Avena fatua; post-emergence, dosage 80 g/ha): 100%

SMILES: CCn1nnnc1NC(=O)c1ccc(C(F)(F)F)c(C[S+](C)[O-])c1SC (stereo not shown) [Example 2-162]
- herbicidal activity MATIN (Matricaria inodora): 100%
- herbicidal action AMARE (Amaranthus retroflexus; Dosage 80 g/ha): 90
- herbicidal activity SETVI (Setaria viridis; dosage 320 g/ha): 100%
- herbicidal activity ECHCG (Echinochloa crus-galli; dosage 320 g/ha): 100%
- herbicidal activity PHBPU (Pharbitis purpurea; dosage 320 g/ha): 90%
- herbicidal action AVEFA (Avena fatua; Dosage 80 g/ha): 100

SMILES: Cn1nnnc1NC(=O)c1ccc(C(F)(F)F)c(C[S+]([O-])CC(F)(F)F)c1Cl (racemic) [Example 1-312]
- herbicidal activity MATIN (Matricaria inodora): 100%
- herbicidal action AMARE (Amaranthus retroflexus; post-emergence, dosage 80 g/ha): 100%
- herbicidal activity SETVI (Setaria viridis; dosage 320 g/ha): 100%
- herbicidal activity ECHCG (Echinochloa crus-galli; dosage 320 g/ha): 100%
- herbicidal activity PHBPU (Pharbitis purpurea; dosage 320 g/ha): 90%
- herbicidal action AVEFA (Avena fatua; post-emergence, dosage 80 g/ha): 90%

SMILES: Cn1nnnc1NC(=O)c1ccc(C(F)(F)F)c(CSCC2CC2)c1Cl [Example 1-314]
- herbicidal activity MATIN (Matricaria inodora): 100%
- herbicidal action AMARE (Amaranthus retroflexus; post-emergence, dosage 80 g/ha): 100%
- herbicidal activity SETVI (Setaria viridis; dosage 320 g/ha): 100%
- herbicidal activity ECHCG (Echinochloa crus-galli; dosage 320 g/ha): 100%
- herbicidal activity PHBPU (Pharbitis purpurea; dosage 320 g/ha): 90%
- herbicidal action AVEFA (Avena fatua; post-emergence, dosage 80 g/ha): 100%

SMILES: COCCSCc1c(C(F)(F)F)ccc(C(=O)Nc2nnnn2C)c1Cl [Example 1-305]
- herbicidal activity MATIN (Matricaria inodora): 100%
- herbicidal action AMARE (Amaranthus retroflexus; post-emergence, dosage 80 g/ha): 100%
- herbicidal activity SETVI (Setaria viridis; dosage 320 g/ha): 100%
- herbicidal activity ECHCG (Echinochloa crus-galli; dosage 320 g/ha): 100%
- herbicidal activity PHBPU (Pharbitis purpurea; dosage 320 g/ha): 90%
- herbicidal action AVEFA (Avena fatua; post-emergence, dosage 80 g/ha): 100%

SMILES: CCn1nnnc1NC(=O)c1ccc(C(F)F)c(CS(=O)(=O)CC)c1Cl [Example 2-325]
- herbicidal activity MATIN (Matricaria inodora): 100%
- herbicidal action AMARE (Amaranthus retroflexus; Dosage 80 g/ha): 90
- herbicidal activity SETVI (Setaria viridis; dosage 320 g/ha): 100%
- herbicidal activity ECHCG (Echinochloa crus-galli; dosage 320 g/ha): 100%
- herbicidal activity PHBPU (Pharbitis purpurea; dosage 320 g/ha): 100%
- herbicidal action AVEFA (Avena fatua; Dosage 80 g/ha): 90

SMILES: CC[S+]([O-])Cc1c(C(F)(F)F)ccc(C(=O)Nc2nnnn2C)c1Br (racemic) [Example 1-384]
- herbicidal activity MATIN (Matricaria inodora): 100%
- Herbicidal action against AMARE (Amaranthus retroflexus; post-emergence, 20 g of a.i./ha): 90
- herbicidal action AMARE (Amaranthus retroflexus; post-emergence, dosage 80 g/ha): 90%
- Herbicidal action against SETVI (Setaria viridis): 100
- herbicidal activity SETVI (Setaria viridis; dosage 320 g/ha): 100%
- Herbicidal action against ECHCG (Echinochloa crus-galli; 80 g of a.i./ha): 100
- herbicidal activity ECHCG (Echinochloa crus-galli; dosage 320 g/ha): 100%
- herbicidal activity PHBPU (Pharbitis purpurea; dosage 320 g/ha): 90%
- herbicidal action AVEFA (Avena fatua; post-emergence, dosage 80 g/ha): 100%

SMILES: CCCn1nnnc1NC(=O)c1ccc(C(F)F)c(CSCC)c1Cl [Example 3-323]
- herbicidal activity MATIN (Matricaria inodora): 100%
- herbicidal action AMARE (Amaranthus retroflexus; Dosage 80 g/ha): 90
- herbicidal activity SETVI (Setaria viridis; dosage 320 g/ha): 100%
- herbicidal activity ECHCG (Echinochloa crus-galli; dosage 320 g/ha): 100%
- herbicidal activity PHBPU (Pharbitis purpurea; dosage 320 g/ha): 100%
- herbicidal action AVEFA (Avena fatua; Dosage 80 g/ha): 90

SMILES: CCn1nnnc1NC(=O)c1ccc(C(F)F)c(C[S+]([O-])CC)c1Cl (stereo not shown) [Example 2-324]
- herbicidal activity MATIN (Matricaria inodora): 100%
- herbicidal action AMARE (Amaranthus retroflexus; post-emergence, dosage 80 g/ha): 100%
- herbicidal activity SETVI (Setaria viridis; dosage 320 g/ha): 100%
- herbicidal activity ECHCG (Echinochloa crus-galli; dosage 320 g/ha): 100%
- herbicidal activity PHBPU (Pharbitis purpurea; dosage 320 g/ha): 100%
- herbicidal action AVEFA (Avena fatua; post-emergence, dosage 80 g/ha): 100%

SMILES: CSc1c(C(=O)Nc2nnnn2C)ccc(C(F)(F)F)c1C[S+](C)[O-] (stereo not shown) [Example 1-162]
- herbicidal activity MATIN (Matricaria inodora): 100%
- herbicidal action AMARE (Amaranthus retroflexus; post-emergence, dosage 80 g/ha): 100%
- herbicidal activity SETVI (Setaria viridis; dosage 320 g/ha): 100%
- Herbicidal action against ECHCG (Echinochloa crus-galli; 20 g of a.i./ha): 90
- herbicidal activity ECHCG (Echinochloa crus-galli; dosage 320 g/ha): 100%
- Herbicidal action against PHBPU (Pharbitis purpurea; comparative experiment, 20 g of a.i./ha): 60
- herbicidal activity PHBPU (Pharbitis purpurea; dosage 320 g/ha): 90%
- herbicidal action AVEFA (Avena fatua; post-emergence, dosage 80 g/ha): 100%

SMILES: CCn1nnnc1NC(=O)c1ccc(C(F)(F)F)c(CSCCOC)c1Cl [Example 2-305]
- herbicidal activity MATIN (Matricaria inodora): 100%
- herbicidal action AMARE (Amaranthus retroflexus; post-emergence, dosage 80 g/ha): 100%
- herbicidal activity SETVI (Setaria viridis; dosage 320 g/ha): 100%
- herbicidal activity ECHCG (Echinochloa crus-galli; dosage 320 g/ha): 100%
- herbicidal activity PHBPU (Pharbitis purpurea; dosage 320 g/ha): 100%
- herbicidal action AVEFA (Avena fatua; post-emergence, dosage 80 g/ha): 80%

SMILES: CSCc1c(C(F)F)ccc(C(=O)Nc2nnnn2C)c1Cl [Example 1-320]
- herbicidal activity MATIN (Matricaria inodora): 100%
- herbicidal action AMARE (Amaranthus retroflexus; Dosage 80 g/ha): 100
- Herbicidal action against AMARE (Amaranthus retroflexus; post-emergence, 5 g of a.i./ha): 100
- herbicidal activity SETVI (Setaria viridis; dosage 320 g/ha): 100%
- Herbicidal action against ECHCG (Echinochloa crus-galli; 20 g of a.i./ha): 100
- herbicidal activity ECHCG (Echinochloa crus-galli; dosage 320 g/ha): 100%
- herbicidal activity PHBPU (Pharbitis purpurea; dosage 320 g/ha): 80%
- herbicidal action AVEFA (Avena fatua; Dosage 80 g/ha): 100

SMILES: CCCn1nnnc1NC(=O)c1ccc(C(F)(F)F)c(CS(C)(=O)=O)c1Cl [Example 3-298]
- herbicidal activity MATIN (Matricaria inodora): 100%
- herbicidal action AMARE (Amaranthus retroflexus; Dosage 80 g/ha): 100
- herbicidal activity SETVI (Setaria viridis; dosage 320 g/ha): 100%
- herbicidal activity ECHCG (Echinochloa crus-galli; dosage 320 g/ha): 100%
- herbicidal activity PHBPU (Pharbitis purpurea; dosage 320 g/ha): 90%
- herbicidal action AVEFA (Avena fatua; Dosage 80 g/ha): 100

SMILES: CCS(=O)(=O)Cc1c(C(F)(F)F)ccc(C(=O)Nc2nnnn2C)c1C [Example 1-88]
- herbicidal action MATIN (Matricaria inodora): 100%
- herbicidal action AMARE (Amaranthus retroflexus; Dosage 80 g/ha): 90
- herbicidal action SETVI (Setaria viridis; dosage 320 g/ha): 100%
- herbicidal action ECHCG (Echinochloa crus-galli; dosage 320 g/ha): 100%
- herbicidal action PHBPU (Pharbitis purpurea; dosage 320 g/ha): 90%
- herbicidal action AVEFA (Avena fatua; Dosage 80 g/ha): 80

SMILES: CCSCc1c(C(F)F)ccc(C(=O)Nc2nnnn2CC)c1Cl [Example 2-323]
- herbicidal activity MATIN (Matricaria inodora): 100%
- herbicidal action AMARE (Amaranthus retroflexus; post-emergence, dosage 80 g/ha): 80%
- herbicidal activity SETVI (Setaria viridis; dosage 320 g/ha): 100%
- herbicidal activity ECHCG (Echinochloa crus-galli; dosage 320 g/ha): 100%
- herbicidal activity PHBPU (Pharbitis purpurea; dosage 320 g/ha): 90%
- herbicidal action AVEFA (Avena fatua; post-emergence, dosage 80 g/ha): 100%
